Assays:
Assay type in all cases: in vivo
[1] = system: Spodoptera littoralis; assay: Example B7: Spodoptera littoralis (Egyptian cotton leaf worm), cotton leaf discs sprayed, L1 larvae; details: foliar, 72 h, application rate of 200 ppm, 3 days after infestation, read-out: control in at least one of the three categories (mortality, anti-feedant effect, or growth inhibition)
Protocol: Example B7: Spodoptera littoralis (Egyptian Cotton Leaf Worm)
Cotton leaf discs were placed onto agar in 24-well microtiter plates and sprayed with aqueous test solutions prepared from 10′000 ppm DMSO stock solutions. After drying the leaf discs were infested with five L1 larvae. The samples were assessed for mortality, anti-feeding effect, and growth inhibition in comparison to untreated samples 3 days after infestation. Control of Spodoptera littoralis by a test sample is given when at least one of the categories mortality, anti-feedant effect, and growth inhibition is higher than the untreated sample.

[2] = system: Plutella xylostella; assay: Example B4: Plutella xylostella (diamond back moth), artificial diet, 24-well, eggs; details: 192 h, application rate of 200 ppm, 8 days after infestation, 24-well plates, read-out: control in at least one of the two categories (mortality or growth inhibition)
Protocol: Example B4: Plutella xylostella (Diamond Back Moth)
24-well microtiter plates with artificial diet were treated with aqueous test solutions prepared from 10′000 ppm DMSO stock solutions by pipetting. After drying, Plutella eggs were pipetted through a plastic stencil onto a gel blotting paper and the plate was closed with it. The samples were assessed for mortality and growth inhibition in comparison to untreated samples 8 days after infestation. The following compounds gave an effect of at least 80% control in at least one of the two categories (mortality or growth inhibition) at an application rate of 200 ppm: […]

[3] = system: Plutella xylostella; assay: Example B10: Plutella xylostella (diamondback moth), artificial diet, 96-well, eggs; details: 216 h, application rate of 500 ppm, 9 days after infestation, 96-well plates
Protocol: Example B10: Plutella xylostella (Diamondback Moth)
96-well microtiter plates containing artificial diet were treated with aqueous test solutions, prepared from 10′000 ppm DMSO stock solutions, by a liquid handling robot. After drying, eggs (˜30 per well) were infested onto a netted lid which was suspended above the diet. The eggs hatch and L1 larvae move down to the diet. The samples were assessed for mortality 9 days after infestation.
The following compounds gave an effect of at least 80% average mortality at an application rate of 500 ppm: […]

[4] = system: Myzus persicae; assay: Example B9: Myzus persicae (green peach aphid), sucrose solution, 96-well; details: 120 h, application rate of 50 ppm, 5 days after infestation, 96-well plates
Excerpt: Example B9: Myzus persicae (Green Peach Aphid)
Test compounds prepared from 10′000 ppm DMSO stock solutions were applied by a liquid handling robot into 96-well microtiter plates and mixed with a sucrose solution. Parafilm was stretched over the 96-well microtiter plate and a plastic stencil with 96 holes was placed onto the plate. Aphids were sieved into the wells directly onto the Parafilm. The infested plates were closed with a gel blotting card and a second plastic stencil and then turned upside down. The samples were assessed for mortality 5 days after infestation.

[5] = system: Myzus persicae; assay: Example B6: Myzus persicae (green peach aphid), intrinsic activity, sucrose solution, 24-well; details: 120 h, test rate of 12 ppm, 5 days after infestation
Excerpt: Example B6: Myzus Persicae (Green Peach Aphid): Intrinsic Activity
Test compounds prepared from 10′000 ppm DMSO stock solutions were applied by pipette into 24-well microtiter plates and mixed with sucrose solution. The plates were closed with a stretched Parafilm. A plastic stencil with 24 holes was placed onto the plate and infested pea seedlings were placed directly on the Parafilm. The infested plate was closed with a gel blotting paper and another plastic stencil and then turned upside down. The samples were assessed for mortality 5 days after infestation.

[6] = system: Chilo suppressalis; assay: Example B3: Chilo suppressalis (striped rice stem borer), artificial diet, L2 larvae; details: 144 h, application rate of 200 ppm, 6 days after infestation, read-out: control in at least one of the three categories (mortality, anti-feedant effect, or growth inhibition)
Protocol: Example B3: Chilo suppressalis (Striped Rice Stem Borer)
24-well microtiter plates with artificial diet were treated with aqueous test solutions prepared from 10′000 ppm DMSO stock solutions by pipetting. After drying, the plates were infested with L2 larvae (6-8 per well). The samples were assessed for mortality, anti-feeding effect, and growth inhibition in comparison to untreated samples 6 days after infestation. Control of Chilo suppressalis by a test sample is given when at least one of the categories mortality, anti-feedant effect, and growth inhibition is higher than the untreated sample.

[7] = system: Diabrotica balteata; assay: Example B1: Diabrotica balteata (corn root worm), maize sprouts sprayed, L2 larvae; details: 96 h, application rate of 200 ppm, 4 days after infestation, read-out: control in at least one of the two categories (mortality or growth inhibition)
Protocol: Example B1: Diabrotica balteata (Corn Root Worm)
Maize sprouts placed onto an agar layer in 24-well microtiter plates were treated with aqueous test solutions prepared from 10′000 ppm DMSO stock solutions by spraying. After drying, the plates were infested with L2 larvae (6 to 10 per well). The samples were assessed for mortality and growth inhibition in comparison to untreated samples 4 days after infestation.
The following compounds gave an effect of at least 80% control in at least one of the two categories (mortality or growth inhibition) at an application rate of 200 ppm: […]

[8] = system: Spodoptera littoralis; assay: Example B8: Spodoptera littoralis (Egyptian cotton leaf worm), uptake by lettuce roots from agar, eggs; details: 144 h, test rate of 12.5 ppm, 6 days after infestation, compound absorbed by lettuce roots, read-out: control in at least one of the three categories (mortality, anti-feeding, or growth inhibition)
Excerpt: Example B8: Spodoptera Littoralis (Egyptian Cotton Leaf Worm)
Test compounds were applied by pipette from 10′000 ppm DMSO stock solutions into 24-well plates and mixed with agar. Lettuce seeds were placed onto the agar and the multi well plate was closed by another plate which contained also agar. After 7 days the compound was absorbed by the roots and the lettuce grew into the lid plate. The lettuce leaves were then cut off into the lid plate. Spodoptera eggs were pipetted through a plastic stencil onto a humid gel blotting paper and the lid plate was closed with it. The samples were assessed for mortality, anti-feedant effect and growth inhibition in comparison to untreated samples 6 days after infestation.
The following compounds gave an effect of at least 80% control in at least one of the three categories (mortality, anti-feeding, or growth inhibition) at a test rate of 12.5 ppm: […]

[9] = system: Euschistus heros; assay: Example B2: Euschistus heros (neotropical brown stink bug), soybean leaves sprayed, N2 nymphs; details: 120 h, application rate of 200 ppm, 5 days after infestation, read-out: control in at least one of the two categories (mortality or growth inhibition)
Protocol: Example B2: Euschistus heros (Neotropical Brown Stink Bug)
Soybean leaves on agar in 24-well microtiter plates were sprayed with aqueous test solutions prepared from 10′000 ppm DMSO stock solutions. After drying the leaves were infested with N2 nymphs. The samples were assessed for mortality and growth inhibition in comparison to untreated samples 5 days after infestation.
The following compounds gave an effect of at least 80% control in at least one of the two categories (mortality or growth inhibition) at an application rate of 200 ppm: F2, F4, F6, F8, F12, F16.

[10] = system: Myzus persicae; assay: Example B5: Myzus persicae (green peach aphid), feeding/contact activity, sunflower leaf discs; details: foliar, 144 h, application rate of 200 ppm, 6 days after infestation
Protocol: Example B5: Myzus persicae (Green Peach Aphid): Feeding/Contact Activity
Sunflower leaf discs were placed onto agar in a 24-well microtiter plate and sprayed with aqueous test solutions prepared from 10′000 ppm DMSO stock solutions. After drying, the leaf discs were infested with an aphid population of mixed ages. The samples were assessed for mortality 6 days after infestation.

CC(c1ncnn1-c1ccc(C#N)cn1)N(C)C(=O)c1cc(C(F)(F)F)cc(C(F)(F)F)c1 (centres unmarked) [Compound F2, N-[1-[2-(5-cyano-2-pyridyl)-1,2,4-triazol-3-yl]ethyl]-N-methyl-3,5-bis(trifluoromethyl) benzamide]
≥ 80%: percent control (mortality, anti-feedant effect or growth inhibition) at 200 ppm [1] | percent control (mortality or growth inhibition) at 200 ppm [2] | mortality at 500 ppm [3] | mortality at 50 ppm [4] | mortality at 12 ppm [5] | percent control (mortality, anti-feedant effect or growth inhibition) at 200 ppm [6] | percent control (mortality or growth inhibition) at 200 ppm [7] | percent control (mortality, anti-feeding or growth inhibition) at 12.5 ppm [8] | percent control (mortality or growth inhibition) at 200 ppm [9]

CC(c1ncnn1-c1ncc(C#N)cn1)N(CC1CC1)C(=O)c1cc(C(F)(F)F)cc(C(F)(F)F)c1 (centres unmarked) [Compound F4, N-[1-[2-(5-cyanopyrimidin-2-yl)-1,2,4-triazol-3-yl]ethyl]-N-(cyclopropylmethyl)-3,5-bis(trifluoromethyl) benzamide]
≥ 80%: percent control (mortality, anti-feedant effect or growth inhibition) at 200 ppm [1] | percent control (mortality or growth inhibition) at 200 ppm [7] | percent control (mortality or growth inhibition) at 200 ppm [9]

Cc1nc(C(C)NC(=O)c2cc(OC(F)F)cc(C(F)(F)F)c2)n(-c2ccc(C#N)cn2)n1 (centres unmarked) [Compound F6, N-[1-[2-(5-cyano-2-pyridyl)-5-methyl-1,2,4-triazol-3-yl]ethyl]-3-(difluoromethoxy)-5-(trifluoromethyl) benzamide]
≥ 80%: percent control (mortality, anti-feedant effect or growth inhibition) at 200 ppm [1] | percent control (mortality or growth inhibition) at 200 ppm [2] | mortality at 50 ppm [4] | mortality at 12 ppm [5] | percent control (mortality or growth inhibition) at 200 ppm [7] | percent control (mortality or growth inhibition) at 200 ppm [9]

Cc1nc(C(C)NC(=O)c2cc(Br)cc(C(F)(F)F)c2)n(-c2ccc(C#N)cn2)n1 (centres unmarked) [Compound F8, 3-bromo-N-[1-[2-(5-cyano-2-pyridyl)-5-methyl-1,2,4-triazol-3-yl]ethyl]-5-(trifluoromethyl) benzamide]
≥ 80%: percent control (mortality, anti-feedant effect or growth inhibition) at 200 ppm [1] | percent control (mortality or growth inhibition) at 200 ppm [2] | mortality at 50 ppm [4] | mortality at 12 ppm [5] | percent control (mortality or growth inhibition) at 200 ppm [7] | percent control (mortality or growth inhibition) at 200 ppm [9]

Cc1nc(C(C)NC(=O)c2cc(C(F)F)cc(C(F)(F)F)c2)n(-c2ccc(C#N)cn2)n1 (centres unmarked) [Compound F9, N-[1-[2-(5-cyano-2-pyridyl)-5-methyl-1,2,4-triazol-3-yl]ethyl]-3-(difluoromethyl)-5-(trifluoromethyl) benzamide]
≥ 80%: percent control (mortality, anti-feedant effect or growth inhibition) at 200 ppm [1] | percent control (mortality or growth inhibition) at 200 ppm [2] | mortality at 50 ppm [4] | mortality at 12 ppm [5] | percent control (mortality, anti-feedant effect or growth inhibition) at 200 ppm [6] | percent control (mortality or growth inhibition) at 200 ppm [7]

CC(NC(=O)c1cc(SC(F)(F)F)cc(C(F)(F)F)c1)c1nc(C2CC2)nn1-c1ccc(C#N)cn1 (centres unmarked) [Compound F12, N-[1-[2-(5-cyano-2-pyridyl)-5-cyclopropyl-1,2,4-triazol-3-yl]ethyl]-3-(trifluoromethyl)-5-(trifluoromethylsulfanyl) benzamide]
≥ 80%: percent control (mortality, anti-feedant effect or growth inhibition) at 200 ppm [1] | percent control (mortality or growth inhibition) at 200 ppm [2] | mortality at 500 ppm [3] | percent control (mortality, anti-feedant effect or growth inhibition) at 200 ppm [6] | percent control (mortality or growth inhibition) at 200 ppm [7] | percent control (mortality or growth inhibition) at 200 ppm [9]

Cc1nc(C(C)N(C)C(=O)c2cc(C(F)(F)F)cc(C(F)(F)F)c2)n(-c2ccc(C#N)cn2)n1 (centres unmarked) [Compound F16, N-[1-[2-(5-cyano-2-pyridyl)-5-methyl-1,2,4-triazol-3-yl]ethyl]-N-methyl-3,5-bis(trifluoromethyl) benzamide]
≥ 80%: percent control (mortality, anti-feedant effect or growth inhibition) at 200 ppm [1] | percent control (mortality or growth inhibition) at 200 ppm [2] | mortality at 50 ppm [4] | mortality at 12 ppm [5] | percent control (mortality, anti-feedant effect or growth inhibition) at 200 ppm [6] | percent control (mortality or growth inhibition) at 200 ppm [7] | mortality at 200 ppm [10] | percent control (mortality or growth inhibition) at 200 ppm [9]

— patent publication US20210395217A1, “PESTICIDALLY ACTIVE AZOLE-AMIDE COMPOUNDS” (SYNGENTA PARTICIPATIONS AG, priority 2018, published 2021)
